Measured values taken from paper PMC6327263, “Evaluation of Novel 3-Hydroxyflavone Analogues as HDAC Inhibitors against Colorectal Cancer” (Advances in Pharmacological Sciences, 2018).
Values joined by “and” are separate entries in the source; they are usually repeats but may differ in a detail not shown here. Identical values can stand only once. Marks after values point to notes of the source that are not given here.

Legend:
VERO cells = assay: MTT cytotoxicity assay, Vero; assay type: cell-based, African green monkey; details: Chlorocebus sabaeus, 48 h, mean ± SEM of three experiments
Procedure: Human colorectal carcinoma cell line (HCT116) and African green monkey kidney epithelial cells (VERO) were obtained from National Centre for Cell Science, Pune, MH, India. For their maintenance, the cells were grown in Dulbecco's Modified Eagle's Medium (DMEM) which was supplemented with 10% fetal bovine serum (FBS) and 1 × penicillin/streptomycin at 37°C in CO2 incubator (NU-5501E/G, NuAire Inc., Plymouth, MN, USA) in a humidified atmosphere of 5% CO2 and 95% air.
Cytotoxicity for the synthesized analogues was determined using MTT assay. In brief, HCT116 and VERO cells were harvested from the tissue culture flask and seeded in sterile 96 well plates at a density of 5000 cells per well. After overnight adherence, different concentrations of test compounds were added and incubated for 48 h. Next, 50 µl of the MTT reagent (HiMedia Laboratories, Mumbai, India) (2 mg/ml in the sterile phosphate buffer saline (PBS)) was added into each well and incubated for 3 h. The formazan crystals formed were solubilized using 100% dimethyl sulfoxide (DMSO), and the optical density was measured at 540 nm using the microplate reader (ELx800, BioTek Instruments Inc., Winooski, VT, USA).

[1] = biological target: T1, recombinant human HDAC6 enzyme (Homo sapiens, UniProt Q9UBN7); assay: HDAC6 enzyme inhibition assay; assay type: biochemical; details: mean ± SEM of three experiments
T1 construct: purchased Enzo Life Sciences, Inc. USA
T1 sequence (Q9UBN7 1-1215): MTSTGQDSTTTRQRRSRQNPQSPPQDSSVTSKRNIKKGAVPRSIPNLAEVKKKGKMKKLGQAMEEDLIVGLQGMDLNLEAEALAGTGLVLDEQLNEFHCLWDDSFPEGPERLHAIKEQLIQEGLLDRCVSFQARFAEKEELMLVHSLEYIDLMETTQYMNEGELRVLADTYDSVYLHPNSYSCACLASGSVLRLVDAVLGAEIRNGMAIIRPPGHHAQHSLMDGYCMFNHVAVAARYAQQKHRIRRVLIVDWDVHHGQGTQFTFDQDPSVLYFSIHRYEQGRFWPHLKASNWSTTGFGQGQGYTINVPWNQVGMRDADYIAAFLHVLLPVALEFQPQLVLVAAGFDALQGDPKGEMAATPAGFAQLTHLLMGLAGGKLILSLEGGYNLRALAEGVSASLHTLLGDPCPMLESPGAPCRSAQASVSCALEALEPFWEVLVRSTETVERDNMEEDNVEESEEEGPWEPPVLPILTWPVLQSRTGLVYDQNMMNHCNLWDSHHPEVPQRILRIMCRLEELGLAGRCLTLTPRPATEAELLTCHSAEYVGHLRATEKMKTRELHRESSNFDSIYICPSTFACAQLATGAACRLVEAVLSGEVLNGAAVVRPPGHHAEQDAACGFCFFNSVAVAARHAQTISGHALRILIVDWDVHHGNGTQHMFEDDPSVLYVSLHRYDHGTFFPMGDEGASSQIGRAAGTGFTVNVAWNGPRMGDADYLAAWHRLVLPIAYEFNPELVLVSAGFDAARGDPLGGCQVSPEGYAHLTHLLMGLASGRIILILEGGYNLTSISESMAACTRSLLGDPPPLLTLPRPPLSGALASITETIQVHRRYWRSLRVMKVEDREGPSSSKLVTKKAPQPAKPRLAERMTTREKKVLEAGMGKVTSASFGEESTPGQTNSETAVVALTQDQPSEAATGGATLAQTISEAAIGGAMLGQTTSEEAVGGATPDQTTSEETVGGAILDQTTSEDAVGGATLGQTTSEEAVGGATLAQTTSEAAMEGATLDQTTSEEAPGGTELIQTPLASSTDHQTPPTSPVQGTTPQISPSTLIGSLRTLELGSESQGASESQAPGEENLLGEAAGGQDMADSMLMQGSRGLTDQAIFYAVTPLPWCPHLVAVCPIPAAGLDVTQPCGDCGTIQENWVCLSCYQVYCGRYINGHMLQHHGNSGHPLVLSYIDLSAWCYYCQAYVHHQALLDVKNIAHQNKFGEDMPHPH
Procedure: The HDAC1 and 6 assays were carried out with few modifications from the previously described method. In brief, 10 µl of different concentration of test compounds was added to 40 µl of reaction mixture containing HDAC assay buffer, HDAC substrate, and recombinant human HDAC1 and 6 enzymes. The reactions were incubated for 30 min at 37°C. Then, 50 µl of trypsin stop solution was added in each well, and the plate was incubated at room temperature for an additional 20 min. Fluorescence intensity was measured at an excitation of 360 nm and an emission of 460 nm using a fluorescence microplate reader (FLx800, BioTek Instruments Inc. Winooski, VT, USA).

DMH-induced colon cancer = assay type: in vivo, Wistar rats; details: for ACF/5 cm^2 / Adenocarcinoma: 21 days treatment, quercetin, QMJ-2, QMJ-5 100 mg/kg p.o., mean ± SEM of six animals; for ACF/5 cm^2: DMH control 25 ± 2.1; for Adenocarcinoma: count in colon, DMH control 17 ± 1.7; for kidney index / liver index / spleen index: rat, in vivo, po, 100 mg/kg
Procedure: The two test compounds (QMJ-2 and QMJ-5) and quercetin were suspended in 0.25% w/v sodium carboxymethyl cellulose (CMC) and were administered orally (p.o.). 5-Fluorouracil (5-FU) which was used as a standard was procured in the form of injection and was administered intraperitonially (i.p.).
Colon cancer in experimental animals was induced using the highly specific carcinogen DMH, with few modifications from the previously described procedure. DMH was administered at a dose of 30 mg/kg i.p. once a week for 20 weeks. The incidence of aberrant crypt foci (ACF) and adenocarcinoma were confirmed by sacrificing few animals after 20 weeks of induction with DMH. Furthermore, the animals were randomized into five experimental groups, and various treatments were administered for a period of 21 days followed by the assessment of different parameters in the experimental animals.
(1) Experimental Groups • Group 1: animals received 0.25% CMC in water p.o. • Group 2: animals received 0.25% CMC in water p.o. (DMH control) • Group 3: animals received 5-FU at 10 mg/kg i.p. • Group 4: animals received quercetin at 100 mg/kg p.o. • Group 5: animals received QMJ-2 at 100 mg/kg p.o. • Group 6: animals received QMJ-5 at 100 mg/kg p.o.
(2) ACF Formation and Adenocarcinoma Incidence. The entire colon was excised from the experimental animals and was used to study the incidence of adenocarcinoma. The count and size were noted from each animal. For ACF formation, the distal part of the colon was excised, and the tissue was then cut open and fixed with 10% buffered formalin for 12 h. Following this, the tissue was stained with 0.1% methylene blue in PBS for 5 min. The tissues were then observed under microscope for ACF formation and were calculated as the number of counts/5 cm^2 in colon tissue.
(3) Colon Weight/Length Ratio and Organ Index. Length of the excised colon was measured in centimeters, and weight was measured in g. Colon weight/length ratio was then calculated. For the determination of organ index, major organs including spleen, liver, and kidney of the experimental animals were weighed in g and the respective index was calculated. […]

| SMILES | IC50 (VERO cells) [µM] | IC50 [1] [µM] | ACF/5 cm^2 (DMH-induced colon cancer; 5-FU 10 mg/kg i.p.) | colon weight/length ratio (DMH-induced colon cancer; compared with DMH control, 5-FU 10 mg/kg i.p., others 100 mg/kg p.o., 21 days) | Adenocarcinoma (DMH-induced colon cancer; 5-FU 10 mg/kg i.p.) | kidney index (DMH-induced colon cancer) | liver index (DMH-induced colon cancer) | spleen index (DMH-induced colon cancer) |
| --- | --- | --- | --- | --- | --- | --- | --- | --- |
| Cc1ccc(-c2oc3ccccc3c(=O)c2O)cc1 [QMJ-2, 3-Hydroxy-2-(4-methylphenyl)-4H-1-benzopyran-4-one] | 140 ± 6.8 | 165 ± 11.1 | 16 ± 2.1 /5 cm^2 and 16 ± 2.1^a /5 cm^2 | significant decrease | 14 ± 1.3 | no significant change | Significant reduction | significant decrease |
| Cc1ccc(-c2oc3cc(C)ccc3c(=O)c2O)cc1 [QMJ-5, 3-Hydroxy-7-methyl-2-(4-methylphenyl)-4H-1-benzopyran-4-one] | 55.6 ± 3.8 | 163 ± 7.05 | 15 ± 2.6 /5 cm^2 and 15 ± 2.6^a /5 cm^2 | – | 11 ± 0.8^a | no significant change | Significant reduction | – |
| O=c1c(O)c(-c2ccc(O)c(O)c2)oc2cc(O)cc(O)c12 [Quercetin, quercetin, reference compound] | 202 ± 7.5 | 43.4 ± 2.17 | 19 ± 2.6 /5 cm^2 | – | 15 ± 1.1 | – | – | significant decrease |
